Values quoted from earlier work in patent US20260117185A1, “ENHANCEMENT OF FIBROBLAST PLASTICITY FOR TREATMENT OF DISC DEGENERATION” (SPINALCYTE, LLC, priority 2018, published 2026).

Key:
[1] = system: in vitro pre-mature senescence model; conditions: valproic acid treatment
mesenchymal stem cells = conditions: culture of cells with valproic acid
[2] = through the suppression of the p16/p21 pathway

SMILES: CCCC(CCC)C(=O)O [valproic acid]
- G2/M phase blockage derived from the senescence stress [1]: inhibited the G2/M phase blockage
- apoptosis [1, 2]: inhibited apoptosis
- cell proliferation [1, 2]: increased cell proliferation
- immune regulatory and metabolic properties of mesenchymal stem cells (mesenchymal stem cells): enhanced immune regulatory and metabolic properties
